Laboratory results published in EP4745135A1 (Gluetacs Therapeutics (Shanghai) Co., Ltd., priority 2023, dated 2025).

Tests used:
CK1α = molecular target: T1, CK1α (Homo sapiens, UniProt P48729+Q96SW2); experiment: Western blot, degradation of substrate protein in hPBMCs; type: cell-based
T1 construct: effects of the compounds of the present disclosure on the expression of target proteins in cells; endogenous in cells; host or cells: human PBMCs (Milecell Biotechnologies)

IKZF1 = molecular target: T2, IKZF1 (Homo sapiens, UniProt Q13422+Q96SW2); experiment: as above; type: cell-based
T2 construct: effects of the compounds of the present disclosure on the expression of target proteins in cells; endogenous in cells; host or cells: human PBMCs (Milecell Biotechnologies)

IKZF2 = molecular target: T3, IKZF2 (Homo sapiens, UniProt Q96SW2+Q9UKS7); experiment: as above; type: cell-based
T3 construct: effects of the compounds of the present disclosure on the expression of target proteins in cells; endogenous in cells; host or cells: human PBMCs (Milecell Biotechnologies)

IKZF3 = molecular target: T4, IKZF3 (Homo sapiens, UniProt Q96SW2+Q9UKT9); experiment: as above; type: cell-based
T4 construct: effects of the compounds of the present disclosure on the expression of target proteins in cells; endogenous in cells; host or cells: human PBMCs (Milecell Biotechnologies)

WEE1 = molecular target: T5, WEE1 (Homo sapiens, UniProt P30291+Q96SW2); experiment: as above; type: cell-based
T5 construct: effects of the compounds of the present disclosure on the expression of target proteins in cells; endogenous in cells; host or cells: human PBMCs (Milecell Biotechnologies)

GSPT1 = experiment: as above; type: cell-based, Human
[1] = molecular target: T6, human Cereblon WT GST-tagged protein (Homo sapiens, UniProt Q96SW2); experiment: CRBN-binding affinity, HTRF (CEREBLON BINDING kit); settings: for IC50: CRBN binding, HTRF, 3 hours at room temperature, read-out: HTRF IC50; for inhibition at 0.5 µM: read-out: Inhibition Rate at 0.5 µM (%); for inhibition at 2 µM: read-out: Inhibition Rate at 2 µM (%)
T6 construct: purchased CISBIO 64BDCRBNPEH

[2] = 24 hours treatment, compounds at 50 nM and 500 nM (concentration behind the class not stated)
[3] = Western blot, 24 hours of compound treatment, compounds tested at 50 nM and 500 nM (concentration for the table not stated)

T1 sequence (P48729 whole entry): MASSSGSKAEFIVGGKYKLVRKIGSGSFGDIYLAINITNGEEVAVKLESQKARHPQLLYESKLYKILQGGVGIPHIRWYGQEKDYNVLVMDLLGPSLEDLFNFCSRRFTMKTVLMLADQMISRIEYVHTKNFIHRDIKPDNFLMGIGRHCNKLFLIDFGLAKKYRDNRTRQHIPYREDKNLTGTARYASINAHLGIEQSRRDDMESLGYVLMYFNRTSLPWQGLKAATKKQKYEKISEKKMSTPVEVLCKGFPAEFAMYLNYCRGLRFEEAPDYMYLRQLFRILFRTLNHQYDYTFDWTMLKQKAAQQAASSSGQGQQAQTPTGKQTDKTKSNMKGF
T1 sequence (Q96SW2 whole entry): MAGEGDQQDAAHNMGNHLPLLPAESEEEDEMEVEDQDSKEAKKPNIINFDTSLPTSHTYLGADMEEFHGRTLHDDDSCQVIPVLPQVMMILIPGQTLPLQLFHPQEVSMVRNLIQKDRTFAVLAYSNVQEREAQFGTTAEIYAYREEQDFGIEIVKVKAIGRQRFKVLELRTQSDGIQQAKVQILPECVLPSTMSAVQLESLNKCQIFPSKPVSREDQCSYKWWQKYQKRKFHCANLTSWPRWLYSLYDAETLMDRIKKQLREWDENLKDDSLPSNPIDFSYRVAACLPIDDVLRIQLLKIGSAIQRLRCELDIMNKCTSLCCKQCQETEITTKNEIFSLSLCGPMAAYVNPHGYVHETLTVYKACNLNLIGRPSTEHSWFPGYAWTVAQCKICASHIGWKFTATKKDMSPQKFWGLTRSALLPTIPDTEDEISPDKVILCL
T1 sequence (Q16531 whole entry partner): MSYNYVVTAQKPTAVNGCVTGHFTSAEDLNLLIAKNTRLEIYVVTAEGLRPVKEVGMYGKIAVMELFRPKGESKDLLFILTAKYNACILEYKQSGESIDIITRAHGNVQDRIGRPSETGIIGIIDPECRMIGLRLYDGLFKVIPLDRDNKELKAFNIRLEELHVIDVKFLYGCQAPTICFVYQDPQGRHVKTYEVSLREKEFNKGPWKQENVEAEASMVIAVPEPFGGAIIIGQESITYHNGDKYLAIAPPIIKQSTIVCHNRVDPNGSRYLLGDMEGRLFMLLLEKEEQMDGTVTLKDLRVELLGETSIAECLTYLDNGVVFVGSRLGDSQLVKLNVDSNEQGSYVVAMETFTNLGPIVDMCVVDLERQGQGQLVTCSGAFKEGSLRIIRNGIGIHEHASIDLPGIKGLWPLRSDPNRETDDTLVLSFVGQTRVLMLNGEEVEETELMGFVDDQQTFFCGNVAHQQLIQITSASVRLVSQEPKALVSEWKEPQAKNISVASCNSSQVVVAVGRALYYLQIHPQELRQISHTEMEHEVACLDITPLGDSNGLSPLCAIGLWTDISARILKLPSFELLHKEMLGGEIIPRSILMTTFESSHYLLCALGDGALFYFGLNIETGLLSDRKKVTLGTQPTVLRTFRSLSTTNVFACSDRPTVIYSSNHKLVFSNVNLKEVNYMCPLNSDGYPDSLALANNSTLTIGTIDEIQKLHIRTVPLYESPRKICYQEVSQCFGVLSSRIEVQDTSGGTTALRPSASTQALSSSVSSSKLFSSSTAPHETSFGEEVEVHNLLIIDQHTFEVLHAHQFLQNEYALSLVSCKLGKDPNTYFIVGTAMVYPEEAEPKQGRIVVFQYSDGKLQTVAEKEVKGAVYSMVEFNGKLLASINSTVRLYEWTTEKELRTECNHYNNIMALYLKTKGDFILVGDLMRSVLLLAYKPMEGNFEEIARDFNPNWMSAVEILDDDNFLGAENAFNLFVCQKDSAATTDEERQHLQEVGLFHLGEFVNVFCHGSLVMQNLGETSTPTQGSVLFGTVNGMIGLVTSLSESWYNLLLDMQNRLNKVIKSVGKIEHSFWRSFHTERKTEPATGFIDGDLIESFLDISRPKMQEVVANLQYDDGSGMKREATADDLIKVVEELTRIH
T5 sequence (P30291 whole entry): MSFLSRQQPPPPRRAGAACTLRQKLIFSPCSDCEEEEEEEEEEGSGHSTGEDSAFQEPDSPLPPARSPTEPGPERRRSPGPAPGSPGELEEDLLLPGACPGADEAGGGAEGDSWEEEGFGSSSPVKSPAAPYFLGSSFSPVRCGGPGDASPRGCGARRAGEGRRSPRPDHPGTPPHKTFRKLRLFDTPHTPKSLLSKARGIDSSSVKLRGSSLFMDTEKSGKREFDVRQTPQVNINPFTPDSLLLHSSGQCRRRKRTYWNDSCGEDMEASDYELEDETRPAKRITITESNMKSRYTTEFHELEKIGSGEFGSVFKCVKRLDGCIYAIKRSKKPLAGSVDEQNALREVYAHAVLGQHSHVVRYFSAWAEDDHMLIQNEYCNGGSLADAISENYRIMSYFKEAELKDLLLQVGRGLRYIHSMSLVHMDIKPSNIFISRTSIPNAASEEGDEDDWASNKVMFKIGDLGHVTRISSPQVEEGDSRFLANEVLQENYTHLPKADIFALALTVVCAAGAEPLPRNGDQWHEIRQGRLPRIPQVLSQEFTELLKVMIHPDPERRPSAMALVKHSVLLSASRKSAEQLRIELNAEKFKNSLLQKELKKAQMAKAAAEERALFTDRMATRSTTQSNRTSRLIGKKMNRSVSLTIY
T5 sequence (Q96SW2 whole entry): as the sequence (Q96SW2 whole entry) above
T5 sequence (Q16531 whole entry partner): as the sequence (Q16531 whole entry partner) above
T4 sequence (Q9UKT9 whole entry): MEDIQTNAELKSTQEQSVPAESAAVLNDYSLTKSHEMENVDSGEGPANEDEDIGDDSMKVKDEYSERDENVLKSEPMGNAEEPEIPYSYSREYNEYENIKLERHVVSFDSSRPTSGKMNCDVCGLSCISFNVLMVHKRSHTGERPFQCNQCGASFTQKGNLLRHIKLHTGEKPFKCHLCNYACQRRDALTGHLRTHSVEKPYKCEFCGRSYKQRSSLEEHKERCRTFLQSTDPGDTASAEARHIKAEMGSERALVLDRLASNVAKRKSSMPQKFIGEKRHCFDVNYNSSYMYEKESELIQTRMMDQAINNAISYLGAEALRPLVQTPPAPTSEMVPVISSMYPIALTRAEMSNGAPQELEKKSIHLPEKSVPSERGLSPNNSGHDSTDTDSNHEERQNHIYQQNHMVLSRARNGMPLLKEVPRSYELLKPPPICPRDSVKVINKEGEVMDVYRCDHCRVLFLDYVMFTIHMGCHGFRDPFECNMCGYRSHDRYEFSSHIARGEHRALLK
T4 sequence (Q96SW2 whole entry): as the sequence (Q96SW2 whole entry) above
T4 sequence (Q16531 whole entry partner): as the sequence (Q16531 whole entry partner) above
T2 sequence (Q13422 whole entry): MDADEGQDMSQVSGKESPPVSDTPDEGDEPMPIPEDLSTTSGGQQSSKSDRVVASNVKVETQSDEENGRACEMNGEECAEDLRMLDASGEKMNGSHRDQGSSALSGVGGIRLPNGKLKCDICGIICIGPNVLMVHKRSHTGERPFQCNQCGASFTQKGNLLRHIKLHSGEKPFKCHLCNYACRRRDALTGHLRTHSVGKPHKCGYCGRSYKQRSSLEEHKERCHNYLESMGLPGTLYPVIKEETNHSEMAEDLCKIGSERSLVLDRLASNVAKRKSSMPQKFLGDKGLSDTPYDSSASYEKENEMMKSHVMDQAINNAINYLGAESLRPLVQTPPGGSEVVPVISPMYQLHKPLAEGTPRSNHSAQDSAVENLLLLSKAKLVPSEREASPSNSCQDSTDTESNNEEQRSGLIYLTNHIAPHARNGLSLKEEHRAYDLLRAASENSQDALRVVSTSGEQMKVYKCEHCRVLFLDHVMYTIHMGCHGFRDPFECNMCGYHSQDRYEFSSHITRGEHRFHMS
T2 sequence (Q96SW2 whole entry): as the sequence (Q96SW2 whole entry) above
T2 sequence (Q16531 whole entry partner): as the sequence (Q16531 whole entry partner) above
T3 sequence (Q9UKS7 whole entry): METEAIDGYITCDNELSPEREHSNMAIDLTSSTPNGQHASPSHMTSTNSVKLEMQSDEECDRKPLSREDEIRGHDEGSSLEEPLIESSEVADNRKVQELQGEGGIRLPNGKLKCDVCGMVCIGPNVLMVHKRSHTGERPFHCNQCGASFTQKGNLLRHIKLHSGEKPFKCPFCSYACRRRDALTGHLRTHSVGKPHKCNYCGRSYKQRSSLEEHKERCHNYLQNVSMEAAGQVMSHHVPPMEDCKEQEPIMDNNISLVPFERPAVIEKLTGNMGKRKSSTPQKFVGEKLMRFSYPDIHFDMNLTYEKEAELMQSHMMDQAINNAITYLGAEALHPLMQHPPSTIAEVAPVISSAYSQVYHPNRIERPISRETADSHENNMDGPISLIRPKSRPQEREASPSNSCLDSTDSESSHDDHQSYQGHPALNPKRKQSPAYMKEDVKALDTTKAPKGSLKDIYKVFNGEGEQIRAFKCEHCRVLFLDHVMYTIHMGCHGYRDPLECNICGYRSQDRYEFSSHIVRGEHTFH
T3 sequence (Q96SW2 whole entry): as the sequence (Q96SW2 whole entry) above
T3 sequence (Q16531 whole entry partner): as the sequence (Q16531 whole entry partner) above
T6 sequence (Q96SW2 whole entry): as the sequence (Q96SW2 whole entry) above

Row | SMILES | CK1α substrate protein remaining % (CK1α; [2]) | IKZF 1 substrate protein remaining % (IKZF1; [2]) | IKZF2 substrate protein remaining % (IKZF2; [2]) | IKZF3 substrate protein remaining % (IKZF3; [2]) | Wee1 substrate protein remaining % (WEE1; [2]) | GSPT1 substrate protein remaining % (GSPT1; [2]) | IC50 [1] [µM] | CK1α substrate protein remaining % (CK1α; [3]) | IKZF 1 substrate protein remaining % (IKZF1; [3]) | IKZF2 substrate protein remaining % (IKZF2; [3]) | IKZF3 substrate protein remaining % (IKZF3; [3]) | Wee1 substrate protein remaining % (WEE1; [3]) | GSPT1 substrate protein remaining % (GSPT1; [3]) | inhibition at 0.5 µM [1] [%] | inhibition at 2 µM [1] [%]
1 | O=C1CCC(N2Cc3ccc(CN4CCC(c5noc6cc(F)ccc56)CC4)cc3C2=S)C(=O)N1 (stereo not shown) [GT-05031, 3-(6-((4-(6-fluorobenzo[d]isoxazol-3-yl)piperidin-1-yl)methyl)-1-thioxoisoindolin-2-yl)piperidine-2,6-dione] | B (80%< substrate protein remaining %≤ 100%) | B (80%< substrate protein remaining %≤ 100%) | B (80%< substrate protein remaining %≤ 100%) | A (0% ≤ substrate protein remaining % ≤ 80%) | B (80%< substrate protein remaining %≤ 100%) | A (0% ≤ substrate protein remaining % ≤ 80%) | 0.1 to 0.5 |  |  |  |  |  |  |  | 
2 | O=C1CCC(N2Cc3cc(CN4CCC(c5ccnc(Cl)c5Cl)CC4)ccc3C2=S)C(=O)N1 (stereo not shown) [GT-08475, 3-(5-((4-(2,3-dichloropyridin-4-yl)piperidin-1-yl)methyl)-1-thioxoisoindolin-2-yl)piperidine-2,6-dione] |  |  |  |  |  |  |  | B (80%< substrate protein remaining %≤ 100%) | B (80%< substrate protein remaining %≤ 100%) | B (80%< substrate protein remaining %≤ 100%) | B (80%< substrate protein remaining %≤ 100%) | B (80%< substrate protein remaining %≤ 100%) | A (0% ≤ substrate protein remaining % ≤ 80%) | 60 to 80 | 80 to 100
3 | O=C1CCC(N2Cc3c(CN4CCN(c5ccnc(Cl)c5F)CC4)cccc3C2=S)C(=O)N1 (stereo not shown) [GT-08732, 3-(4-((4-(2-chloro-3-fluoropyridin-4-yl)piperazin-1-yl)methyl)-1-thioxoisoindolin-2-yl)piperidine-2,6-dione] |  |  |  |  |  |  |  | B (80%< substrate protein remaining %≤ 100%) | B (80%< substrate protein remaining %≤ 100%) | B (80%< substrate protein remaining %≤ 100%) | B (80%< substrate protein remaining %≤ 100%) | A (0% ≤ substrate protein remaining % ≤ 80%) | B (80%< substrate protein remaining %≤ 100%) | 60 to 80 | 80 to 100
4 | O=C1CCC(N2Cc3cc(CN4CCN(c5ccncc5)CC4)ccc3C2=S)C(=O)N1 (stereo not shown) [GT-09233, 3-(5-((4-(pyridin-4-yl)piperazin-1-yl)methyl)-1-thioxoisoindolin-2-yl)piperidine-2,6-dione] |  |  |  |  |  |  |  | A (0% ≤ substrate protein remaining % ≤ 80%) | A (0% ≤ substrate protein remaining % ≤ 80%) | A (0% ≤ substrate protein remaining % ≤ 80%) | A (0% ≤ substrate protein remaining % ≤ 80%) | A (0% ≤ substrate protein remaining % ≤ 80%) | A (0% ≤ substrate protein remaining % ≤ 80%) | 60 to 80 | 80 to 100
5 | O=C1CCC(N2Cc3ccc(CN4CCN(c5cccc6sccc56)CC4)cc3C2=S)C(=O)N1 (stereo not shown) [GT-05035, 3-(6-((4-(benzo[b]thiophen-4-yl)piperazin-1-yl)methyl)-1-thioxoisoindolin-2-yl)piperidine-2,6-dione] |  |  |  |  |  |  | 0.1 to 0.5 | B (80%< substrate protein remaining %≤ 100%) | A (0% ≤ substrate protein remaining % ≤ 80%) | A (0% ≤ substrate protein remaining % ≤ 80%) | A (0% ≤ substrate protein remaining % ≤ 80%) | A (0% ≤ substrate protein remaining % ≤ 80%) | A (0% ≤ substrate protein remaining % ≤ 80%) |  | 
6 | O=C1CCC(N2Cc3c(CN4CCN(c5nccc(I)c5F)CC4)cccc3C2=S)C(=O)N1 (stereo not shown) [GT-08704, 3-(4-((4-(3-fluoro-4-iodopyridin-2-yl)piperazin-1-yl)methyl)-1-thioxoisoindolin-2-yl)piperidine-2,6-dione] |  |  |  |  |  |  |  | B (80%< substrate protein remaining %≤ 100%) | B (80%< substrate protein remaining %≤ 100%) | A (0% ≤ substrate protein remaining % ≤ 80%) | A (0% ≤ substrate protein remaining % ≤ 80%) | A (0% ≤ substrate protein remaining % ≤ 80%) | B (80%< substrate protein remaining %≤ 100%) | 40 to 53 | 80 to 100
